Reference: patent publication US20260201008A1, “SECRETIN-DERIVED GLP1R SELECTIVE AGONISTS” (GUBRA A/S, priority 2023, published 2026)
In brackets after ≈: the same amount, converted by molar mass. Like-named read-outs stand apart in the source and are kept apart here. Numbered stars: 1 amine (or outer) side, 2 acyl side, 3 side chain; on linkers, the order of the positions; unused ones are H or OH. Square brackets hold non-standard residues; d marks the D form. Side chains are listed from the residue outwards. Peptide text beside a SMILES is read from it. * marks the point of attachment. C20 diacid = O=C(O)CCCCCCCCCCCCCCCCCCC(=O)*; γGlu = O=C(O)[C@H](CCC(=O)[*:2])N[*:1]; AEEA = NCCOCCOCC(=O)O; Aib = CC(C)(N)C(=O)O

Legend:
[1] = Thioflavin T fibril formation assay of purified peptides; format: physicochemical; conditions: 267 μM, phosphate buffer pH 7.0, 96 h at 40° C.
Procedure: Thioflavin T fibril formation assay: Peptides are dissolved as 267 μM in 50 mM phosphate buffer pH 7.0 for 2 h at room temperature on a rocking table. The samples were then divided into three replicates of 80 μl/well and mixed with 2 μl/well Thioflavin T (ThT) to a final concentration of 4 μM ThT in a black 384 well microplate with a clear bottom (Greiner #781096). The plate is inserted in a CLARIOstar Plus microplate reader (BMG Labtech) and fibril formation is measured as an increase in fluorescence emission at 480 nm (excitation at 450 nm) during 96 h at 40° C. with cycles of 5 min rest and 5 min linear shaking at 700 rpm.

[2] = Solubility of purified peptides; format: physicochemical; conditions: 100 mM phosphate buffer, target pH 7.0, target approximately 10 mg/mL
Procedure: Solubility was tested in the following vehicles: 100 mM phosphate buffer facilitating a target pH of 7.0. Samples were directly dissolved in Mini-UniPrep Syringeless Filter 0.45 μm unit (Whatman). For the desired concentration, such as a concentration of approximately 10 mg/mL, 1050 nmol of peptide was dissolved in 400 μL vehicle. Samples were incubated for at least 1 h at room temperature on a rocking table. The pH was measured and adjusted. Samples were left on the rocking table for an additional hour before a second pH measurement and adjustment. Visual inspection was performed and noted before the filter was pushed. The concentration of peptide in the filtrate was determined using CAD (Charged Aerosol Detection), double determination was done for each sample. The measured concentration was reported in μM. Furthermore, the pH of the filtrate was measured and reported. Peptides with a measured concentration within +/−20% of target concentration are considered fully soluble.

[3] = molecular target: GLP1R (Homo sapiens, UniProt P43220); test: hGLP1R potency, cAMP accumulation in CHO-K1 cells stably overexpressing hGLP1R; format: cell-based; set-up: host or cells: CHO-K1; conditions: for Selectivity: SCTR EC50/GLP1R EC50 ratio
GLP1R, sequence (P43220 24-463): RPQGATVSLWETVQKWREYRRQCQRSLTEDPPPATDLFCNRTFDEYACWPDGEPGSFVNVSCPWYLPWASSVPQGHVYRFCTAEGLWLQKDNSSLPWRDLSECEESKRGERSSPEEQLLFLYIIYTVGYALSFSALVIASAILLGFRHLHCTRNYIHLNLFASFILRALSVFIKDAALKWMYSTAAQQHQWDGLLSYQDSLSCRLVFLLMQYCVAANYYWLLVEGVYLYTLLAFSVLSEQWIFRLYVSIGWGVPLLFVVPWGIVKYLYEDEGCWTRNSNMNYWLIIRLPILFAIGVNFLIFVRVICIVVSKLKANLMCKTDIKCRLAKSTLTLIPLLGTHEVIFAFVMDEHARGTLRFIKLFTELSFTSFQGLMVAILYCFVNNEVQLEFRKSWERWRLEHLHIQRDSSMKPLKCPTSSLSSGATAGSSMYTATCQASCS
Summary of the method: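 2000 cells/well, DPBS + 0.05% casein + 0.5 mM IBMX; 30 min RT stimulation; HTRF cAMP detection after 1 h. Purified: 3-fold ×11, n=2; crude: 10-fold ×5, n=1. EC50 by variable-slope fit.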

[4] = molecular target: SCTR (Homo sapiens, UniProt P47872); test: hSCTR potency, cAMP accumulation in CHO-K1 cells stably overexpressing hSCTR; format: cell-based; set-up: alternatively Euroscreen ES-712-AF; FAST-0161L; host or cells: CHO-K1
SCTR, sequence (P47872 23-440): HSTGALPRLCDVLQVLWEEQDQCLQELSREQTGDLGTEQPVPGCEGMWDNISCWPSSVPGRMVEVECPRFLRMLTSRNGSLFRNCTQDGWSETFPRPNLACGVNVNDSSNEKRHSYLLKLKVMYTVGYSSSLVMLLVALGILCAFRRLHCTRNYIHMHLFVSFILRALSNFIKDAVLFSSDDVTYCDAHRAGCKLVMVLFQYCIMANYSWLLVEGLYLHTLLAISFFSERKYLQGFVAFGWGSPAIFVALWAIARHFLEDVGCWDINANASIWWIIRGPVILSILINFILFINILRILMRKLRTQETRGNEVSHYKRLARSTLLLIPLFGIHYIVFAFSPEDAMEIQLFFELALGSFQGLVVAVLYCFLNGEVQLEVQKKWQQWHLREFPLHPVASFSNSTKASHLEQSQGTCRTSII
Summary of the method: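 Thawed CHO-K1 cells carrying stable hSCTR are plated into casein/IBMX buffer (0.05%, 0.5 mM), dosed immediately for 30 min at room temperature, then cAMP is detected by TR-FRET. Purified peptides run as 11 three-fold dilutions in duplicate, and curves are fitted with variable slope.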

[5] = Table 2, extended 30 amino acid peptides
[6] = Table 2, extended 30 amino acid peptides, read-out: PEC50 hGLPR1 (converted)
[7] = Table 2, extended 30 amino acid peptides, read-out: pEC50 hSCTR (converted)

| Structure (SMILES) | Fibril formation [1] | solubility [2] [µg/mL] | Selectivity [3, 5] | Selectivity ([3]; purified peptides) | EC50 [3, 6] [nM] | EC50 [4, 7] [nM] | EC50 ([3]; cAMP accumulation, CHO-K1 cells stably overexpressing hGLP1R, read-out: hGLP1R potency (pEC50) (converted)) [nM] | SCTR EC50/GLP1R EC50 ratio ([3]; selectivity ratio, hSCTR vs hGLP1R, cAMP accumulation in CHO-K1 cells) | EC50 ([4]; cAMP accumulation, CHO-K1 cells stably overexpressing hSCTR, read-out: hSCTR potency (pEC50) (converted)) [nM] | EC50 ([4]; purified peptides, read-out: hSCTR pEC50 (converted)) [nM] |
| --- | --- | --- | --- | --- | --- | --- | --- | --- | --- | --- |
| CC(C)C[C@H](NC(=O)[C@H](CC(C)C)NC(=O)[C@H](Cc1ccc(O)cc1)NC(=O)[C@H](CO)NC(=O)[C@@H](NC(=O)[C@H](CC(=O)O)NC(=O)[C@H](CO)NC(=O)[C@@H](NC(=O)[C@H](Cc1ccccc1)NC(=O)[C@@H](NC(=O)CNC(=O)[C@H](CCC(=O)O)NC(=O)C(C)(C)NC(=O)[C@@H](N)Cc1c[nH]cn1)[C@@H](C)O)[C@@H](C)O)C(C)C)C(=O)N[C@@H](CCC(=O)O)C(=O)N[C@@H](CCC(=O)O)C(=O)N[C@@H](C)C(=O)NC(C)(C)C(=O)N[C@@H](CC(C)C)C(=O)N[C@@H](CCC(N)=O)C(=O)N[C@@H](CCCNC(=N)N)C(=O)N[C@@H](Cc1ccccc1)C(=O)N[C@@H](CC(C)C)C(=O)N[C@@H](CCC(=O)O)C(=O)N[C@@H](CCCCNC(=O)COCCOCCNC(=O)COCCOCCNC(=O)CC[C@H](NC(=O)CCCCCCCCCCCCCCCCCCC(=O)O)C(=O)O)C(=O)N[C@@H](CC(C)C)C(=O)N[C@H](C(=O)N[C@@H](CCC(=O)O)C(=O)N[C@@H](C)C(=O)N[C@@H](C)C(N)=O)C(C)C [compound 213] (H-H[Aib]EGTFTSDVSYLLEEA[Aib]LQRFLEK([AEEA-AEEA-γGlu-C20 diacid])LVEAA-NH2) | No | 8200 (≈ 2000 µM) | 54706 | 63571 | 0.0158 | 1000 |  |  |  |  |
| CC(C)C[C@H](NC(=O)[C@H](Cc1ccccc1)NC(=O)[C@H](CCCNC(=N)N)NC(=O)[C@H](CCC(N)=O)NC(=O)[C@H](CC(C)C)NC(=O)C(C)(C)NC(=O)[C@H](C)NC(=O)[C@H](CCC(=O)O)NC(=O)[C@H](CCC(=O)O)NC(=O)[C@H](CCCCNC(=O)COCCOCCNC(=O)COCCOCCNC(=O)CC[C@H](NC(=O)CCCCCCCCCCCCCCCCCCC(=O)O)C(=O)O)NC(=O)[C@H](CC(C)C)NC(=O)[C@H](CCC(=O)O)NC(=O)[C@H](CO)NC(=O)[C@@H](NC(=O)[C@H](CC(=O)O)NC(=O)[C@H](CO)NC(=O)[C@@H](NC(=O)[C@H](Cc1ccccc1)NC(=O)[C@@H](NC(=O)CNC(=O)[C@H](CCC(=O)O)NC(=O)C(C)(C)NC(=O)[C@@H](N)Cc1c[nH]cn1)[C@@H](C)O)[C@@H](C)O)C(C)C)C(=O)N[C@@H](CCC(=O)O)C(=O)N[C@@H](Cc1c[nH]cn1)C(=O)N[C@@H](CC(C)C)C(=O)N[C@H](C(=O)N[C@@H](CCC(=O)O)C(=O)N[C@@H](C)C(=O)N[C@@H](C)C(N)=O)C(C)C [compound 210] (H-H[Aib]EGTFTSDVSELK([AEEA-AEEA-γGlu-C20 diacid])EEA[Aib]LQRFLEHLVEAA-NH2) | No | 8300 (≈ 2020 µM) |  |  |  |  |  |  |  |  |
| CC(C)C[C@H](NC(=O)[C@H](Cc1ccccc1)NC(=O)[C@H](CCCNC(=N)N)NC(=O)[C@H](CCC(N)=O)NC(=O)[C@H](CC(C)C)NC(=O)C(C)(C)NC(=O)[C@H](C)NC(=O)[C@H](CCC(=O)O)NC(=O)[C@H](CCC(=O)O)NC(=O)[C@H](CCCCNC(=O)COCCOCCNC(=O)COCCOCCNC(=O)CC[C@H](NC(=O)CCCCCCCCCCCCCCCCCCC(=O)O)C(=O)O)NC(=O)[C@H](CC(C)C)NC(=O)[C@H](Cc1ccc(O)cc1)NC(=O)[C@H](CO)NC(=O)[C@@H](NC(=O)[C@H](CC(=O)O)NC(=O)[C@H](CO)NC(=O)[C@@H](NC(=O)[C@H](Cc1ccccc1)NC(=O)[C@@H](NC(=O)CNC(=O)[C@H](CCC(=O)O)NC(=O)C(C)(C)NC(=O)[C@@H](N)Cc1c[nH]cn1)[C@@H](C)O)[C@@H](C)O)C(C)C)C(=O)N[C@@H](CCC(=O)O)C(=O)N[C@@H](Cc1c[nH]cn1)C(=O)N[C@@H](CC(C)C)C(=O)N[C@H](C(=O)N[C@@H](CCC(=O)O)C(=O)N[C@@H](C)C(=O)N[C@@H](C)C(N)=O)C(C)C [compound 209] (H-H[Aib]EGTFTSDVSYLK([AEEA-AEEA-γGlu-C20 diacid])EEA[Aib]LQRFLEHLVEAA-NH2) | No | 11000 (≈ 2660 µM) | 34167 | 33673 | 0.0126 | 398 |  |  |  |  |
| CC(C)C[C@H](NC(=O)[C@H](Cc1ccccc1)NC(=O)[C@H](CCCNC(=N)N)NC(=O)[C@H](CCC(N)=O)NC(=O)[C@H](CC(C)C)NC(=O)C(C)(C)NC(=O)[C@H](C)NC(=O)[C@H](CCC(=O)O)NC(=O)[C@H](CCC(=O)O)NC(=O)[C@H](CCCCNC(=O)COCCOCCNC(=O)COCCOCCNC(=O)CC[C@H](NC(=O)CCCCCCCCCCCCCCCCCCC(=O)O)C(=O)O)NC(=O)[C@H](CC(C)C)NC(=O)[C@H](Cc1ccc(O)cc1)NC(=O)[C@H](CO)NC(=O)[C@@H](NC(=O)[C@H](CC(=O)O)NC(=O)[C@H](CO)NC(=O)[C@@H](NC(=O)[C@H](Cc1ccccc1)NC(=O)[C@@H](NC(=O)CNC(=O)[C@H](CCC(=O)O)NC(=O)C(C)(C)NC(=O)[C@@H](N)Cc1c[nH]cn1)[C@@H](C)O)[C@@H](C)O)C(C)C)C(=O)N[C@@H](CCC(=O)O)C(=O)N[C@@H](Cc1c[nH]cn1)C(=O)N[C@@H](CC(C)C)C(=O)N[C@H](C(N)=O)C(C)C [compound 203] (H-H[Aib]EGTFTSDVSYLK([AEEA-AEEA-γGlu-C20 diacid])EEA[Aib]LQRFLEHLV-NH2) | No | 9800 (≈ 2540 µM) |  | 11176 |  |  | 0.02 | 10000 | 200 | 200 |
| CC(C)C[C@H](NC(=O)[C@H](Cc1ccccc1)NC(=O)[C@H](CCCNC(=N)N)NC(=O)[C@H](CCC(N)=O)NC(=O)[C@H](CC(C)C)NC(=O)C(C)(C)NC(=O)[C@H](C)NC(=O)[C@H](CCC(=O)O)NC(=O)[C@H](CCC(=O)O)NC(=O)[C@H](CCCCNC(=O)COCCOCCNC(=O)COCCOCCNC(=O)CC[C@H](NC(=O)CCCCCCCCCCCCCCCCCCC(=O)O)C(=O)O)NC(=O)[C@H](CC(C)C)NC(=O)[C@H](CCCNC(=N)N)NC(=O)[C@H](CO)NC(=O)[C@@H](NC(=O)[C@H](CC(=O)O)NC(=O)[C@H](CO)NC(=O)[C@@H](NC(=O)[C@H](Cc1ccccc1)NC(=O)[C@@H](NC(=O)CNC(=O)[C@H](CCC(=O)O)NC(=O)C(C)(C)NC(=O)[C@@H](N)Cc1c[nH]cn1)[C@@H](C)O)[C@@H](C)O)C(C)C)C(=O)N[C@@H](CCC(=O)O)C(=O)N[C@@H](Cc1c[nH]cn1)C(=O)N[C@@H](CC(C)C)C(=O)N[C@H](C(=O)N[C@@H](CCC(=O)O)C(=O)N[C@@H](C)C(=O)N[C@@H](C)C(N)=O)C(C)C [compound 208] (H-H[Aib]EGTFTSDVSRLK([AEEA-AEEA-γGlu-C20 diacid])EEA[Aib]LQRFLEHLVEAA-NH2) | No | 9200 (≈ 2230 µM) |  |  |  |  |  |  |  |  |
| CC(C)C[C@H](NC(=O)[C@H](CC(C)C)NC(=O)[C@H](CCCNC(=N)N)NC(=O)[C@H](CO)NC(=O)[C@@H](NC(=O)[C@H](CC(=O)O)NC(=O)[C@H](CO)NC(=O)[C@@H](NC(=O)[C@H](Cc1ccccc1)NC(=O)[C@@H](NC(=O)CNC(=O)[C@H](CCC(=O)O)NC(=O)C(C)(C)NC(=O)[C@@H](N)Cc1c[nH]cn1)[C@@H](C)O)[C@@H](C)O)C(C)C)C(=O)N[C@@H](CCC(=O)O)C(=O)N[C@@H](CCC(=O)O)C(=O)N[C@@H](C)C(=O)NC(C)(C)C(=O)N[C@@H](CC(C)C)C(=O)N[C@@H](CCC(N)=O)C(=O)N[C@@H](CCCNC(=N)N)C(=O)N[C@@H](Cc1ccccc1)C(=O)N[C@@H](CC(C)C)C(=O)N[C@@H](CCC(=O)O)C(=O)N[C@@H](CCCCNC(=O)COCCOCCNC(=O)COCCOCCNC(=O)CC[C@H](NC(=O)CCCCCCCCCCCCCCCCCCC(=O)O)C(=O)O)C(=O)N[C@@H](CC(C)C)C(=O)N[C@H](C(=O)N[C@@H](CCC(=O)O)C(=O)N[C@@H](C)C(=O)N[C@@H](C)C(N)=O)C(C)C [compound 212] (H-H[Aib]EGTFTSDVSRLLEEA[Aib]LQRFLEK([AEEA-AEEA-γGlu-C20 diacid])LVEAA-NH2) | No | 8400 (≈ 2050 µM) | 2864 | 2857 | 0.02 | 63.1 |  |  |  |  |
